Source: article PMC5218480 (PLoS ONE, 2017)

System: MV-4-11 cells
Assay: Gene expression microarray analysis (Affymetrix PrimeView) and GSEA
Format: cell-based, human
Design: RFU PODN (11730768_x_at) / Fold change /veh PODN (11730768_x_at) / RFU LINC00158 (11744669_a_at) / Fold change /veh LINC00158 (11744669_a_at) / RFU DUSP10 (11751237_a_at) / Fold change /veh DUSP10 (11751237_a_at) / RFU ID3 (11757404_x_at) / Fold change /veh ID3 (11757404_x_at) / RFU PLEKHG5 (11737974_s_at) / Fold change /veh PLEKHG5 (11737974_s_at) / RFU LRRC4B (11730491_at) / Fold change /veh LRRC4B (11730491_at) / RFU GIMAP4 (11747438_a_at) / Fold change /veh GIMAP4 (11747438_a_at) / RFU KRT8 (11758183_x_at) / Fold change /veh KRT8 (11758183_x_at) / RFU CNN1 (11734310_a_at) / Fold change /veh CNN1 (11734310_a_at) / RFU VPS37D (11726825_at) / Fold change /veh VPS37D (11726825_at) / RFU C10orf10 (11716522_x_at) / Fold change /veh C10orf10 (11716522_x_at) / RFU KIR2DL2 /// KIR2DL4 /// KIR2DL5A /// KIR2DL5B /// KIR2DS1 /// KIR2DS2 /// KIR2DS3 /// KIR2DS4 /// KIR3DL3 /// KIR3DL3 /// KIR3DS1 (11738374_at) / Fold change /veh KIR2DL2 /// KIR2DL4 /// KIR2DL5A /// KIR2DL5B /// KIR2DS1 /// KIR2DS2 /// KIR2DS3 /// KIR2DS4 /// KIR3DL3 /// KIR3DL3 /// KIR3DS1 (11738374_at) / RFU C1QL1 (11718748_at) / Fold change /veh C1QL1 (11718748_at) / RFU TMPRSS4 (11747572_a_at) / Fold change /veh TMPRSS4 (11747572_a_at) / RFU HAMP (11756126_x_at) / Fold change /veh HAMP (11756126_x_at) / RFU RNFT2 (11725882_a_at) / Fold change /veh RNFT2 (11725882_a_at) / RFU NR4A2 (11747474_a_at) / Fold change /veh NR4A2 (11747474_a_at) / RFU ABCC12 (11746883_a_at) / Fold change /veh ABCC12 (11746883_a_at) / RFU TMEM136 (11760407_x_at) / Fold change /veh TMEM136 (11760407_x_at) / RFU CLDN22 /// WWC2 (11732394_at) / Fold change /veh CLDN22 /// WWC2 (11732394_at) / RFU HLA-DPB1 (11760878_x_at) / Fold change /veh HLA-DPB1 (11760878_x_at) / RFU SPINT1 (11716480_a_at) / Fold change /veh SPINT1 (11716480_a_at) / RFU GAP43 (11754022_s_at) / Fold change /veh GAP43 (11754022_s_at) / RFU A4GNT (11735810_at) / Fold change /veh A4GNT (11735810_at) / RFU PRB3 (11715151_x_at) / Fold change /veh PRB3 (11715151_x_at) / RFU TUBB4B (11761932_at) / Fold change /veh TUBB4B (11761932_at) / RFU CAPN14 (11732068_a_at) / Fold change /veh CAPN14 (11732068_a_at) / RFU TMCC2 (11721928_a_at) / Fold change /veh TMCC2 (11721928_a_at) / RFU IRGQ (11745062_a_at) / Fold change /veh IRGQ (11745062_a_at) / RFU FAM174B (11720279_a_at) / Fold change /veh FAM174B (11720279_a_at) / RFU TMPRSS4 (11748680_a_at) / Fold change /veh TMPRSS4 (11748680_a_at) / RFU FAM212B (11763350_a_at) / Fold change /veh FAM212B (11763350_a_at) / RFU PLEKHG5 (11743358_a_at) / Fold change /veh PLEKHG5 (11743358_a_at) / RFU ZSCAN30 (11745921_a_at) / Fold change /veh ZSCAN30 (11745921_a_at) / RFU CMKLR1 (11741424_a_at) / Fold change /veh CMKLR1 (11741424_a_at) / RFU LOC101060620 /// MAPK8IP1 (11723275_at) / Fold change /veh LOC101060620 /// MAPK8IP1 (11723275_at) / RFU SPTSSB (11747773_x_at) / Fold change /veh SPTSSB (11747773_x_at) / RFU PRSS12 (11739890_at) / Fold change /veh PRSS12 (11739890_at) / RFU BIN1 (11741810_x_at) / Fold change /veh BIN1 (11741810_x_at) / RFU WNT11 (11732464_a_at) / Fold change /veh WNT11 (11732464_a_at) / RFU C10orf10 (11716521_a_at) / Fold change /veh C10orf10 (11716521_a_at) / RFU C5orf56 (11738089_at) / Fold change /veh C5orf56 (11738089_at) / RFU CYB561 (11721691_x_at) / Fold change /veh CYB561 (11721691_x_at) / RFU ANKRD19P (11752326_a_at) / Fold change /veh ANKRD19P (11752326_a_at) / RFU OR2T12 /// OR2T33 /// OR2T8 (11738714_s_at) / Fold change /veh OR2T12 /// OR2T33 /// OR2T8 (11738714_s_at) / RFU VCAN (11748164_a_at) / Fold change /veh VCAN (11748164_a_at) / RFU JSRP1 (11732532_at) / Fold change /veh JSRP1 (11732532_at) / RFU KRTAP10-11 (11738290_x_at) / Fold change /veh KRTAP10-11 (11738290_x_at) / RFU MYO3A (11730013_a_at) / Fold change /veh MYO3A (11730013_a_at) / RFU EBF3 (11725865_a_at) / Fold change /veh EBF3 (11725865_a_at) / RFU CAMK2N1 (11719241_x_at) / Fold change /veh CAMK2N1 (11719241_x_at) / RFU C5orf56 (11738088_a_at) / Fold change /veh C5orf56 (11738088_a_at) / RFU OLFML3 (11715873_a_at) / Fold change /veh OLFML3 (11715873_a_at) / RFU LOC100653217 /// NTM (11731650_a_at) / Fold change /veh LOC100653217 /// NTM (11731650_a_at) / RFU MAPK11 (11762145_a_at) / Fold change /veh MAPK11 (11762145_a_at) / RFU FIZ1 (11724087_x_at) / Fold change /veh FIZ1 (11724087_x_at) / RFU OASL (11726364_x_at) / Fold change /veh OASL (11726364_x_at) / RFU SOX15 (11748057_x_at) / Fold change /veh SOX15 (11748057_x_at) / RFU CD79A (11719716_a_at) / Fold change /veh CD79A (11719716_a_at) / RFU HIST1H1D (11736915_at) / Fold change /veh HIST1H1D (11736915_at) / RFU CASKIN2 (11723855_a_at) / Fold change /veh CASKIN2 (11723855_a_at) / RFU LOC730098 (11760151_x_at) / Fold change /veh LOC730098 (11760151_x_at) / RFU OR4N2 (11742367_at) / Fold change /veh OR4N2 (11742367_at) / RFU PRRT2 (11749266_a_at) / Fold change /veh PRRT2 (11749266_a_at) / RFU SNX32 (11753110_a_at) / Fold change /veh SNX32 (11753110_a_at) / RFU CDHR5 (11726645_a_at) / Fold change /veh CDHR5 (11726645_a_at) / RFU RCAN1 (11760418_a_at) / Fold change /veh RCAN1 (11760418_a_at) / RFU FAM167A (11723789_a_at) / Fold change /veh FAM167A (11723789_a_at) / RFU FAM26E (11764081_at) / Fold change /veh FAM26E (11764081_at) / RFU ISYNA1 (11749810_s_at) / Fold change /veh ISYNA1 (11749810_s_at) / RFU ACY1 (11761880_at) / Fold change /veh ACY1 (11761880_at) / RFU 11764098_at / Fold change /veh 11764098_at / RFU SAMD14 (11745864_x_at) / Fold change /veh SAMD14 (11745864_x_at) / RFU NPB (11741838_a_at) / Fold change /veh NPB (11741838_a_at) / RFU TMPRSS6 (11731388_a_at) / Fold change /veh TMPRSS6 (11731388_a_at) / RFU KRTAP10-2 (11738614_at) / Fold change /veh KRTAP10-2 (11738614_at) / RFU ARHGAP8 /// PRR5-ARHGAP8 (11727945_x_at) / Fold change /veh ARHGAP8 /// PRR5-ARHGAP8 (11727945_x_at) / RFU KRTAP5-7 /// NADSYN1 (11734609_at) / Fold change /veh KRTAP5-7 /// NADSYN1 (11734609_at) / RFU RASL12 (11751679_a_at) / Fold change /veh RASL12 (11751679_a_at) / RFU CDKN2B (11736163_a_at) / Fold change /veh CDKN2B (11736163_a_at) / RFU PRF1 (11729649_at) / Fold change /veh PRF1 (11729649_at) / RFU, ZNF638 /// ZNF638-IT1 / Fold change vs veh, ZNF638 /// ZNF638-IT1 / RFU, PANK3 / Fold change vs veh, PANK3 / RFU, SH3YL1 / Fold change vs veh, SH3YL1 / RFU, ZEB2 / Fold change vs veh, ZEB2 / RFU, NRIP1 / Fold change vs veh, NRIP1 / RFU, PTTG1IP / Fold change vs veh, PTTG1IP / RFU, CAPN2 / Fold change vs veh, CAPN2 / RFU, MED14 / Fold change vs veh, MED14 / RFU, SNORA58 / Fold change vs veh, SNORA58 / RFU, C1orf63 / Fold change vs veh, C1orf63 / RFU, LRRFIP1 / Fold change vs veh, LRRFIP1 / RFU, NDUFAF7 / Fold change vs veh, NDUFAF7 / RFU, SLC12A2 / Fold change vs veh, SLC12A2 / RFU, IBTK / Fold change vs veh, IBTK / RFU, ESF1 / Fold change vs veh, ESF1 / Fold change vs veh, TMEM50B / RFU, TAOK1 / Fold change vs veh, TAOK1 / RFU, ACBD3 / Fold change vs veh, ACBD3 / RFU, TMA16 / Fold change vs veh, TMA16 / RFU, RWDD3 / Fold change vs veh, RWDD3 / RFU, BCAT1 / Fold change vs veh, BCAT1 / RFU, EDEM3 / Fold change vs veh, EDEM3 / RFU, TMEM33 / Fold change vs veh, TMEM33 / RFU, WDR75 / Fold change vs veh, WDR75 / RFU, AHCTF1 / Fold change vs veh, AHCTF1 / RFU, TFRC / Fold change vs veh, TFRC / RFU, ZDHHC17 / Fold change vs veh, ZDHHC17 / RFU, NOM1 / Fold change vs veh, NOM1 / RFU, ARL8B / Fold change vs veh, ARL8B / RFU, ZBTB11 / Fold change vs veh, ZBTB11 / RFU, TAMM41 / Fold change vs veh, TAMM41 / RFU, KIAA1704 /// LOC100996395 / Fold change vs veh, KIAA1704 /// LOC100996395 / RFU, ING1 / Fold change vs veh, ING1 / RFU, TRMT61B / Fold change vs veh, TRMT61B / RFU, FUBP3 / Fold change vs veh, FUBP3 / RFU, TP53 / Fold change vs veh, TP53 / RFU, TNKS2 / Fold change vs veh, TNKS2 / RFU, ZFP14 / Fold change vs veh, ZFP14 / RFU, ACTR2 / Fold change vs veh, ACTR2 / RFU, PPP3R1 / Fold change vs veh, PPP3R1 / RFU, PIK3R1 / Fold change vs veh, PIK3R1 / RFU, HNRNPA1 / Fold change vs veh, HNRNPA1 / RFU, RNF170 / Fold change vs veh, RNF170 / RFU, ZNF28 / Fold change vs veh, ZNF28 / RFU, RNGTT / Fold change vs veh, RNGTT / RFU, OGT / Fold change vs veh, OGT / RFU, BRD1 / Fold change vs veh, BRD1 / RFU, MARS / Fold change vs veh, MARS / RFU, ZNF655 / Fold change vs veh, ZNF655 / RFU, FAHD1 / Fold change vs veh, FAHD1 / RFU, BDP1 / Fold change vs veh, BDP1 / RFU, LRRCC1 / Fold change vs veh, LRRCC1 / RFU, ARID1A / Fold change vs veh, ARID1A / RFU, ZNF146 / Fold change vs veh, ZNF146 / RFU, ZNF330 / Fold change vs veh, ZNF330 / RFU, GPN3 / Fold change vs veh, GPN3 / RFU, C9orf123 / Fold change vs veh, C9orf123 / RFU, N4BP2L2 / Fold change vs veh, N4BP2L2 / RFU, ARFIP1 / Fold change vs veh, ARFIP1 / RFU, FAM179B / Fold change vs veh, FAM179B / RFU, BCL10 / Fold change vs veh, BCL10 / RFU, UHRF1BP1L / Fold change vs veh, UHRF1BP1L / RFU, BET1 / Fold change vs veh, BET1 / RFU, CNOT2 / Fold change vs veh, CNOT2 / RFU, ZNF268 / Fold change vs veh, ZNF268 / Fold change vs veh, ZNF507 / RFU, DGCR2 / Fold change vs veh, DGCR2 / RFU, WDSUB1 / Fold change vs veh, WDSUB1 / Fold change vs veh, HSP90B1 /// MIR3652 / RFU, ADSS / Fold change vs veh, ADSS / RFU, GK / Fold change vs veh, GK / RFU, ZNF148 / Fold change vs veh, ZNF148 / RFU, TAF9 / Fold change vs veh, TAF9 / RFU, SLC1A5 / Fold change vs veh, SLC1A5 / RFU, SLMO2 / Fold change vs veh, SLMO2 / RFU, ABCC4 / Fold change vs veh, ABCC4 / RFU, LOC101060439 /// RAP1B / Fold change vs veh, LOC101060439 /// RAP1B / RFU, RFX7 / Fold change vs veh, RFX7 / RFU, GTPBP10 / Fold change vs veh, GTPBP10 / RFU, CNEP1R1 / Fold change vs veh, CNEP1R1 / RFU, BIVM-ERCC5 /// ERCC5 / Fold change vs veh, BIVM-ERCC5 /// ERCC5 / RFU, ILF3 / Fold change vs veh, ILF3 / RFU 11762660_at / Fold change /veh 11762660_at / RFU VCAN (11757783_s_at) / Fold change /veh VCAN (11757783_s_at) / RFU DDX43 (11728927_at) / Fold change /veh DDX43 (11728927_at) / RFU KRT8 (11758188_x_at) / Fold change /veh KRT8 (11758188_x_at) / RFU NKD1 (11759106_at) / Fold change /veh NKD1 (11759106_at) / RFU SRD5A1 (11742802_a_at) / Fold change /veh SRD5A1 (11742802_a_at) / RFU TPSAB1 /// TPSB2 (11721975_s_at) / Fold change /veh TPSAB1 /// TPSB2 (11721975_s_at) / RFU GSTM3 (11746129_a_at) / Fold change /veh GSTM3 (11746129_a_at) / RFU IL23R (11737362_x_at) / Fold change /veh IL23R (11737362_x_at) / RFU TMEM51 (11727254_a_at) / Fold change /veh TMEM51 (11727254_a_at) / RFU PIWIL2 (11732686_x_at) / Fold change /veh PIWIL2 (11732686_x_at) / RFU ORM1 (11744905_x_at) / Fold change /veh ORM1 (11744905_x_at) / RFU CCDC152 (11743942_at) / Fold change /veh CCDC152 (11743942_at) / RFU ECM1 (11717891_a_at) / Fold change /veh ECM1 (11717891_a_at) / RFU IL23R (11748794_a_at) / Fold change /veh IL23R (11748794_a_at) / RFU TNFAIP8L3 (11732012_x_at) / Fold change /veh TNFAIP8L3 (11732012_x_at) / RFU MBOAT4 (11741988_at) / Fold change /veh MBOAT4 (11741988_at) / RFU 11764193_at / Fold change /veh 11764193_at / RFU TMEM53 (11763286_at) / Fold change /veh TMEM53 (11763286_at) / RFU MAGEB2 (11727129_at) / Fold change /veh MAGEB2 (11727129_at) / RFU TMEM200A (11744735_a_at) / Fold change /veh TMEM200A (11744735_a_at) / RFU CCDC152 (11751479_a_at) / Fold change /veh CCDC152 (11751479_a_at) / RFU FAM211A (11726209_a_at) / Fold change /veh FAM211A (11726209_a_at) / RFU RGS16 (11746705_a_at) / Fold change /veh RGS16 (11746705_a_at) / RFU VCAN (11755009_s_at) / Fold change /veh VCAN (11755009_s_at) / RFU RHOB (11743442_s_at) / Fold change /veh RHOB (11743442_s_at) / RFU RGS16 (11720943_a_at) / Fold change /veh RGS16 (11720943_a_at) / RFU RGS16 (11720944_at) / Fold change /veh RGS16 (11720944_at) / RFU, VPS4B / Fold change vs veh, VPS4B / RFU, CREB1 / Fold change vs veh, CREB1 / RFU, DNAJC13 / Fold change vs veh, DNAJC13 / RFU, GNAQ / Fold change vs veh, GNAQ / RFU, CDK5R1 / Fold change vs veh, CDK5R1 / RFU, ZRANB3 / Fold change vs veh, ZRANB3 / RFU, CUL4A / Fold change vs veh, CUL4A / RFU, CCNY / Fold change vs veh, CCNY / RFU, UFL1 / Fold change vs veh, UFL1 / RFU, COG3 / Fold change vs veh, COG3 / RFU, DIAPH2 / Fold change vs veh, DIAPH2 / RFU, SKA2 / Fold change vs veh, SKA2 / RFU, AFF3 / Fold change vs veh, AFF3 / RFU, LMF1 / Fold change vs veh, LMF1 / RFU, IPO11 / Fold change vs veh, IPO11 / RFU, DFFB / Fold change vs veh, DFFB / RFU, FOXP1 / Fold change vs veh, FOXP1 / RFU, CARD8 / Fold change vs veh, CARD8 / RFU, STRN3 / Fold change vs veh, STRN3 / RFU, ADK / Fold change vs veh, ADK / RFU, RASSF2 / Fold change vs veh, RASSF2 / RFU, WIPF1 / Fold change vs veh, WIPF1 / RFU, LARP1B / Fold change vs veh, LARP1B / RFU, RASA1 / Fold change vs veh, RASA1 / RFU, RB1 / Fold change vs veh, RB1 / RFU, PPFIA1 / Fold change vs veh, PPFIA1 / RFU, MAT2A / Fold change vs veh, MAT2A / RFU, CCT5 / Fold change vs veh, CCT5 / RFU, WDR92 / Fold change vs veh, WDR92 / RFU, CUX1 / Fold change vs veh, CUX1 / RFU, TTC7A / Fold change vs veh, TTC7A / RFU, TMEM135 / Fold change vs veh, TMEM135 / RFU, DEPTOR / Fold change vs veh, DEPTOR / RFU, CPM / Fold change vs veh, CPM / RFU, DNAJB6 / Fold change vs veh, DNAJB6 / RFU, CACNA2D3 / Fold change vs veh, CACNA2D3 / RFU, DTX4 / Fold change vs veh, DTX4 / RFU, TFCP2 / Fold change vs veh, TFCP2 / RFU, GMCL1 /// GMCL1P1 / Fold change vs veh, GMCL1 /// GMCL1P1 / RFU, AEBP2 / Fold change vs veh, AEBP2 / RFU, SNHG1 /// SNORD22 /// SNORD25 /// SNORD26 /// SNORD27 /// SNORD28 /// SNORD29 /// SNORD31 / Fold change vs veh, SNHG1 /// SNORD22 /// SNORD25 /// SNORD26 /// SNORD27 /// SNORD28 /// SNORD29 /// SNORD31 / Fold change (Aza/veh), C12orf56 (ProbeSet 11735607_a_at) / Fold change (ACY-1035/veh), C12orf56 (ProbeSet 11735607_a_at) / Fold change (Aza/veh), FGFR1OP (ProbeSet 11751329_s_at) / Fold change (ACY-1035/veh), FGFR1OP (ProbeSet 11751329_s_at) / Fold change (Aza/veh), VPS36 (ProbeSet 11739960_a_at) / Fold change (ACY-1035/veh), VPS36 (ProbeSet 11739960_a_at) / RFU SYPL1 (11715823_x_at) / Fold change /veh SYPL1 (11715823_x_at) / RFU IGFBP7 (11715501_s_at) / Fold change /veh IGFBP7 (11715501_s_at) / RFU REEP3 (11722064_at) / Fold change /veh REEP3 (11722064_at) / RFU IGLL1 (11728026_x_at) / Fold change /veh IGLL1 (11728026_x_at): dose or concentration left out as unconfirmed
Conditions: ProbeSet 11745428_a_at; LIST D

Q: Nc1ccc(-c2cccs2)cc1NC(=O)c1ccc2c(c1)cc(C1CC1)n2CCN1CCOCC1 [ACY-1035] was tested. Which “RFU, DFFB” value did it give?
A: Its value is 104.10 RFU.
